Results: patent publication US20260265329A1, “POLYPEPTIDE AND DERIVATIVE THEREOF, COMPOSITION, AND USE THEREOF” (HANGZHOU SCIWIND BIOSCIENCES CO., LTD., priority 2023, published 2026)
Starred links: 1 amine or outer side, 2 acyl side, 3 side chain; linkers in the order of their positions; H or OH if unused. Non-standard residues stand in square brackets, D forms with d. Residues, ends and D or L forms follow the SMILES beside them. *: point of attachment. C20 diacid = O=C(O)CCCCCCCCCCCCCCCCCCC(=O)*; βAsp = O=C(O)[C@H](CC(=O)[*:2])N[*:1]; Hyp = O=C(O)[C@@H]1C[C@@H](O)CN1; Trx = NC[C@H]1CC[C@H](C(=O)O)CC1; AEEA = NCCOCCOCC(=O)O

Target: T1, human amylin receptors (Homo sapiens, UniProt O60896+P30988)
T1 construct: host or cells: CHO-K1/Ga15/AMY3 cells, further stably transfected with a CRE-luciferase plasmid
T1 sequence (P30988 25-474): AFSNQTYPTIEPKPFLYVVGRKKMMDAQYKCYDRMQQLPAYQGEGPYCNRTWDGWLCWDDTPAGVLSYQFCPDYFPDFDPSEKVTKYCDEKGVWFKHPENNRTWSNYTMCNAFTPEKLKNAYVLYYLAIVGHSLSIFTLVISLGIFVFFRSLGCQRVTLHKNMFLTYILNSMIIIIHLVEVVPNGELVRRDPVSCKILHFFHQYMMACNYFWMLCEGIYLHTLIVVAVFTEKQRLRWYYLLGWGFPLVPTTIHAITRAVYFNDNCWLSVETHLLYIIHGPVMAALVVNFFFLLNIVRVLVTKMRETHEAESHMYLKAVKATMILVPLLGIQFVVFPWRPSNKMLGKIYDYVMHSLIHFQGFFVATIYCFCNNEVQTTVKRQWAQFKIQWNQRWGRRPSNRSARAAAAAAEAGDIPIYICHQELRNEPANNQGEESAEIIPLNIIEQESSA
T1 sequence (O60896 24-148 partner): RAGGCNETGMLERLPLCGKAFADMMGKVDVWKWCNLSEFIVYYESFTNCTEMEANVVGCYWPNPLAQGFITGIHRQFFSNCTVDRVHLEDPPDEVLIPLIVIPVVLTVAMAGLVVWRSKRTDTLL
Assay: Luciferase assay in stably transfected amylin receptor/CRE-luc CHO cell line
Format: cell-based
Conditions: for Relative activity: EC50 ratio of Cagrilintide to the compound, Cagrilintide 100%; for EC50: amylin receptor/CRE-luc CHO cells, 24 hours incubation, luminescence
Source text: The objective of this assay is to test the potency of derivatives of polypeptides of the present application on human amylin receptors in vitro using a luciferase assay. Using the standard protocol, CHO-K1/Ga15/AMY3 cells (purchased from GenScript, with the calcitonin receptor and the receptor activity modifying peptide (RAMP) constructed already) were transfected with a plasmid containing a luciferase expression cassette driven by multiple copies of cAMP response elements (CREs). The cells were cultured in an F12 medium containing 200 μg/mL Zeocin, 2 μg/mL puromycin, 100 μg/mL hygromycin, and 400 μg/mL G418 to afford a stably transfected amylin receptor/CRE-luc cell line. The lyophilized powder from Example 1 was dissolved in 20 mM phosphate buffer solution with a pH of 7.0, and diluted in a growth medium (F12 culture medium containing 10% FBS) to give a derivative sample with an initial concentration of 10 nM, which was then subjected to a 5-fold serial dilution in the growth medium to obtain seven samples with concentrations between […]. In each well of a white 96-well plate, 50 μL of the tested sample solution was added with a corresponding concentration. The stably transfected amylin receptor/CRE-luc CHO cells were resuspended in the growth medium at a certain density, and 50 μL of the cell suspension was added at a density of about 20000 cells per well to the white 96-well plate containing the tested sample solution. After incubation of 24 hours at 37° C. and 5% CO2, 100 μL of a Luciferase substrate was added to each well, incubated for 3 minutes, and finally was tested for luminescence on SpectraMax L (Molecular Devices) with the software SoftMax Pro 7.0.3 GxP.

Relative activity [%] | EC50 [nM] | Compound
78 | 0.034 | CC[C@H](C)[C@H](NC(=O)[C@H](CC(=O)O)NC(=O)[C@H](CCCNC(=N)N)NC(=O)[C@H](CC(=O)O)NC(=O)[C@H](CCCNC(=N)N)NC(=O)[C@H](CC(=O)O)NC(=O)[C@@H](NC(=O)[C@H](Cc1ccccc1)NC(=O)[C@H](Cc1c[nH]cn1)NC(=O)[C@H](CCCNC(=N)N)NC(=O)[C@H](CC(C)C)NC(=O)[C@H](Cc1ccccc1)NC(=O)[C@H](CC(=O)O)NC(=O)[C@H](C)NC(=O)[C@H](CC(C)C)NC(=O)[C@H](CCCNC(=N)N)NC(=O)[C@H](CCC(N)=O)NC(=O)[C@@H](NC(=O)[C@H](C)NC(=O)[C@H](C)NC(=O)[C@@H](NC(=O)[C@H](CO)NC(=O)[C@H](CC(C)C)NC(=O)[C@H](CCC(N)=O)NC(=O)[C@H](CO)NC(=O)[C@H](C)NC(=O)C[C@H](NC(=O)CCCCCCCCCCCCCCCCCCC(=O)O)C(=O)O)[C@@H](C)O)[C@@H](C)O)[C@@H](C)O)C(=O)N[C@@H](CC(C)C)C(=O)N1CCC[C@H]1C(=O)N1CCC[C@H]1C(=O)N[C@H](C(=O)N[C@@H](CC(N)=O)C(=O)N[C@H](C(=O)NCC(=O)N[C@@H](CO)C(=O)N[C@@H](CC(N)=O)C(=O)N[C@H](C(=O)N1CCC[C@H]1C(N)=O)[C@@H](C)O)C(C)C)[C@@H](C)O [M12] ({C20 diacid-βAsp}-ASQLSTAATQRLADFLRHFTDRDRDILPPTNVGSNTP-NH2)
40 | 0.132 | CC[C@H](C)[C@H](NC(=O)[C@@H]1CCCN1C(=O)[C@H](CCCCN)NC(=O)[C@H](CC(C)C)NC(=O)[C@H](CC(N)=O)NC(=O)[C@H](CC(N)=O)NC(=O)[C@H](CO)NC(=O)[C@H](CO)NC(=O)[C@H](Cc1c[nH]cn1)NC(=O)[C@H](CCCNC(=N)N)NC(=O)[C@H](CC(C)C)NC(=O)[C@H](Cc1ccccc1)NC(=O)[C@H](CC(=O)O)NC(=O)[C@H](C)NC(=O)[C@H](CC(C)C)NC(=O)[C@H](CCCNC(=N)N)NC(=O)[C@H](CCC(N)=O)NC(=O)[C@@H](NC(=O)[C@H](C)NC(=O)[C@H](C)NC(=O)[C@@H](NC(=O)[C@H](CO)NC(=O)[C@H](CC(C)C)NC(=O)[C@H](CCC(N)=O)NC(=O)[C@H](CO)NC(=O)[C@H](C)NC(=O)COCCOCCNC(=O)COCCOCCNC(=O)[C@H](CC(=O)O)NC(=O)CCCCCCCCCCCCCCCCCCC(=O)O)[C@@H](C)O)[C@@H](C)O)C(=O)N[C@@H](CC(C)C)C(=O)N1CCC[C@H]1C(=O)N1CCC[C@H]1C(=O)N[C@H](C(=O)N[C@@H](CC(N)=O)C(=O)N[C@H](C(=O)NCC(=O)N[C@@H](CO)C(=O)N[C@@H](CC(N)=O)C(=O)N[C@H](C(=O)N1C[C@H](O)C[C@H]1C(N)=O)[C@@H](C)O)C(C)C)[C@@H](C)O [M34] ({C20 diacid}-D[AEEA][AEEA]ASQLSTAATQRLADFLRHSSNNLKPILPPTNVGSNT[Hyp]-NH2)
412 | – | CC[C@H](C)[C@H](NC(=O)[C@@H]1CCCN1C(=O)[C@H](CCCCN)NC(=O)[C@H](CC(C)C)NC(=O)[C@H](CC(N)=O)NC(=O)[C@H](CC(N)=O)NC(=O)[C@H](CO)NC(=O)[C@H](CO)NC(=O)[C@H](Cc1c[nH]cn1)NC(=O)[C@H](CCCNC(=N)N)NC(=O)[C@H](CC(C)C)NC(=O)[C@H](Cc1ccccc1)NC(=O)[C@H](CC(=O)O)NC(=O)[C@H](C)NC(=O)[C@H](CC(C)C)NC(=O)[C@H](CCCNC(=N)N)NC(=O)[C@H](CCC(N)=O)NC(=O)[C@@H](NC(=O)[C@H](C)NC(=O)[C@H](C)NC(=O)[C@@H](NC(=O)[C@H](CO)NC(=O)[C@H](CC(C)C)NC(=O)[C@H](CCC(N)=O)NC(=O)[C@H](CO)NC(=O)[C@H](C)NC(=O)[C@H]1CC[C@H](CNC(=O)CCCCCCCCCCCCCCCCCCC(=O)O)CC1)[C@@H](C)O)[C@@H](C)O)C(=O)N[C@@H](CC(C)C)C(=O)N1CCC[C@H]1C(=O)N1CCC[C@H]1C(=O)N[C@H](C(=O)N[C@@H](CC(N)=O)C(=O)N[C@H](C(=O)NCC(=O)N[C@@H](CO)C(=O)N[C@@H](CC(N)=O)C(=O)N[C@H](C(=O)N1C[C@H](O)C[C@H]1C(N)=O)[C@@H](C)O)C(C)C)[C@@H](C)O [M29] ({C20 diacid-Trx}-ASQLSTAATQRLADFLRHSSNNLKPILPPTNVGSNT[Hyp]-NH2)
